Source: publication PMC8512764, “New 4-Aminoproline-Based Small Molecule Cyclopeptidomimetics as Potential Modulators of α4β1 Integrin” (Molecules, 2021)
“Also recorded” adds a separate entry of the source. *1 amine or outer side, *2 acyl side, *3 side chain or, on linkers, in order; H or OH if unused. Where a SMILES comes first, the peptide text is derived from it. Bridges are numbered along the chain shown (N, C = ends). [ ]: non-standard residue; d: D form. The star is where a group is joined. ξ: configuration not given here. ξPro(4ξ-NH2) = O=C(C1CC(N[*:3])CN1[*:1])[*:2]; X1 = O=C(Cc1ccc(N[*:1])cc1)[*:2]; NH(2-Me-phenyl) = Cc1ccccc1N*; CO = O=C([*:1])[*:2]

Tests used:
[1] = system: Jurkat cells; test: Jurkat cell adhesion to wells coated with compound 16 (absence of VCAM-1); format: cell-based
Protocol: In a second set of experiments, the ability of compound 16 to increase cell adhesion was tested in the absence of VCAM-1. Wells were coated by passive adsorption with compound 16 or BSA (both at 10 µg/mL) as a negative control and Jurkat cell adhesion was measured (Figure 8b).
(§1) The number of adherent cells was determined as described above.

[2] = target: T1, α4β1 integrin (Homo sapiens, UniProt P05556+P13612); test: Jurkat cell adhesion assay on VCAM-1-coated wells; format: cell-based
T1 construct: Jurkat cells endogenously express α4β1 integrin; host or cells: Jurkat E6.1 cells
T1 sequence (P13612 34-1032): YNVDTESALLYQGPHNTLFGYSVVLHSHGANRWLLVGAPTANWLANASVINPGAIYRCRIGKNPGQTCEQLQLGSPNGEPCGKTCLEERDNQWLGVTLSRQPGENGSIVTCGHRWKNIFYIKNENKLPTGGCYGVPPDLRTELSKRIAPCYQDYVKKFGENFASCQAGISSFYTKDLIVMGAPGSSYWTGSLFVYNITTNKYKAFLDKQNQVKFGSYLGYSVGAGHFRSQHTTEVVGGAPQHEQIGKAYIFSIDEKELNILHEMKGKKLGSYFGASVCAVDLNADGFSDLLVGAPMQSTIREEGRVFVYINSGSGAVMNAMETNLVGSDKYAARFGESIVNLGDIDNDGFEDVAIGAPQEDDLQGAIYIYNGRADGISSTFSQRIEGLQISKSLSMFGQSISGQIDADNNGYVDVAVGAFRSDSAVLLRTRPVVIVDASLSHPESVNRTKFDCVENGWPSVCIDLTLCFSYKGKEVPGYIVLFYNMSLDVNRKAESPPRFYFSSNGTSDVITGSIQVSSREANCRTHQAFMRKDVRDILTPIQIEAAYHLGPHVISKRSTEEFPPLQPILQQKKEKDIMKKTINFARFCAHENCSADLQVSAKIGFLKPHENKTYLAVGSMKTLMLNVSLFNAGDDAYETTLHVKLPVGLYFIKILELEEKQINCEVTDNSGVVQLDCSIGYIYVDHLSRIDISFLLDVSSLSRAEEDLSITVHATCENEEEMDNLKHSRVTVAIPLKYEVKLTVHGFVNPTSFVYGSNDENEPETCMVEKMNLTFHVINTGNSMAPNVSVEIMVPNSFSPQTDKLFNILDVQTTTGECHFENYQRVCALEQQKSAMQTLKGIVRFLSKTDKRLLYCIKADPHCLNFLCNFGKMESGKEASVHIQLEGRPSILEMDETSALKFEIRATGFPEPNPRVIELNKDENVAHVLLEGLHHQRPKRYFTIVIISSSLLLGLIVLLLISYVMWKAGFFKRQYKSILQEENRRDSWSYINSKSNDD
T1 sequence (P05556 21-798): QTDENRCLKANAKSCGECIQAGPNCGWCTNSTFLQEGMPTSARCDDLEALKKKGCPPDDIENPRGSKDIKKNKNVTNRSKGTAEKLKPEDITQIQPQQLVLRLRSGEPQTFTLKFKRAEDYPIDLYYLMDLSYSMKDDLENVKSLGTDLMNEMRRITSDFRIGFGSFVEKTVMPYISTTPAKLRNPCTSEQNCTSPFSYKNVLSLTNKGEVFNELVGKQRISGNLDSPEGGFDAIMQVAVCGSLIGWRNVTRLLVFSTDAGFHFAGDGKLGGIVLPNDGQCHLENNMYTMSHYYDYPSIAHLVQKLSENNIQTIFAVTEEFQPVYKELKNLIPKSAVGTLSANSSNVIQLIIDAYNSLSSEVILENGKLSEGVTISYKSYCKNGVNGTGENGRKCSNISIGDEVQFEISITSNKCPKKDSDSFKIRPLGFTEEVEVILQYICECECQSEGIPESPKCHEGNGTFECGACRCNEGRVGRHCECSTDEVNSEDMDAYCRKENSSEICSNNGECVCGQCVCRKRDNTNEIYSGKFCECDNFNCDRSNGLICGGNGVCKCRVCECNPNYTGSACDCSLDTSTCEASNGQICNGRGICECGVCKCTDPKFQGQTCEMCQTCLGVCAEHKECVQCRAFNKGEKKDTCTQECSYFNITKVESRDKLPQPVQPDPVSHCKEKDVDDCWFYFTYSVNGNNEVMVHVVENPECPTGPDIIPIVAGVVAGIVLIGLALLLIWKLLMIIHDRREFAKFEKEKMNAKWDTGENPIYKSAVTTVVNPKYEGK
Protocol: To investigate the ability of the newly synthesized cyclopeptidomimetics 12–18 to recognize and bind α4β1 integrin, cell adhesion assays were performed on VCAM-1. The compounds were evaluated for their ability to interfere with α4β1 integrin-mediated cell adhesion by using Jurkat cells, which are known to constitutively express this integrin [46, 48, 49, 50, 51].
Jurkat E6.1 cells were purchased from American Type Culture Collection (ATCC, Rockville, MD, USA) and were routinely cultured in RPMI-1640 (LifeTechnologies, Milan, Italy) supplemented with 10% FBS (fetal bovine serum, Life Technologies) and 2 mM glutamine. Cells were kept at 37 °C under 5% CO2 humidified atmosphere. Jurkat cells are a widely used cell model to study potential agonist or antagonist ligands able to modulate integrin-mediated cell adhesion. Jurkat cells endogenously express α4β1 integrin [13].
The assays were performed as previously described. In brief, black 96 well plates were coated with VCAM-1 (2 μg/mL) overnight at 4 °C; then, non-specific hydrophobic binding sites were blocked with 1% BSA (bovine serum albumin, Sigma-Aldrich) in HBSS (Life Technologies) for 30 min at 37 °C. Jurkat cells were labelled with CellTracker green CMFDA (12.5 μM, Life Technolgies) and pre-incubated with various concentration (10^−4–10^−10 M) of each new cyclopeptidomimetic or with the vehicle (DMSO) for 30 min at 37 °C. Afterwards, Jurkat cells were plated on VCAM-1-coated wells and incubated for 30 min at 37 °C. Then, wells were washed three times with 1% BSA in HBSS and Jurkat cells were lysed with 0.5% Triton X-100 in PBS for 30 min at 4 °C. Green fluorescence (Ex485 nm/Em 535 nm) was measured in an EnSpire Multimode Plate Reader (PerkinElmer, Waltham, MA, USA). Experiments were performed in quadruplicate and repeated at least three times. The number of adherent cells was determined by comparison with a standard curve made with a known concentration of labelled Jurkat cells. Data analysis and IC50/EC50 values were calculated using GraphPad Prism 6.0 (GraphPad Software, San Diego, CA, USA).
as §1

[3] = target: T1, α4β1 integrin; conditions: cited from earlier work
[4] = system: allergic conjunctivitis; parameters: method as in PMID 30051467; conditions: cited from earlier work
[5] = system: human α4β1 integrin; parameters: method as in PMID 30051467; conditions: cited from earlier work
[6] = system: α4 integrin; parameters: method as in PMID 30051467; conditions: cited from earlier work
[7] = system: endothelial progenitor cells; parameters: method as in PMID 23703610; conditions: α4β1-dependent; cited from earlier work
[8] = parameters: method as in PMID 31338363, PMID 26101577; conditions: cited from earlier work
[9] = system: α4β7 integrin; parameters: method as in PMID 10072689; conditions: cited from earlier work
[10] = system: α4β1/VCAM-1 interaction; parameters: method as in PMID 10072689; conditions: Jurkat cell adhesion assay; read-out: IC50, inhibition of α4β1/VCAM-1 interaction; cited from earlier work
[11] = system: allergic bronchoconstriction; parameters: method as in PMID 10072689; conditions: administered as an aerosol; cited from earlier work
[12] = target: α4β1 receptor; parameters: method as in PMID 16767086; conditions: Jurkat cell assay; read-out: IC50, affinity toward α4β1 receptor; cited from earlier work
[13] = system: α4β1–positive cells; parameters: method as in PMID 16767086; conditions: cited from earlier work

Which “Jurkat cell adhesion to compound-coated wells” value ([1]; wells coated with 10 μg/mL, absence of VCAM-1, vs BSA-coated wells) does the source give for `Cc1ccccc1NC(=O)Nc1ccc(CC(=O)N2CC3CC2C(=O)NC(C(C)C)C(=O)NC(CC(=O)O)C(=O)NC(CC(C)C)C(=O)N3)cc1` (stereo not drawn) [Compound 16, c[(MPUPA)Amp-Val-Asp-Leu]] ({NH(2-Me-phenyl)-CO}-[X1][ξPro(4ξ-NH2)]VDL; lactam 2-C; configuration not given here) here?
The value was “able to induce Jurkat cell adhesion; also recorded: significant adhesion of Jurkat cells”.

And the “Behaviour in α4β1 integrin-mediated cell adhesion (agonist/antagonist)” value ([2]; Jurkat cell adhesion to VCAM-1 (2 μg/mL))?
The value was “agonist”.

And the EC50 ([2]; Jurkat cell adhesion to VCAM-1 (2 μg/mL), means ± SD, n = 3, read-out: EC50/IC50 (EC50 for compounds enhancing cell adhesion))?
The EC50 was 370 ± 90 nM.

And the “Effect of compound 16 on the reduced cell adhesion induced by BIO1211” value ([2]; cells pre-incubated with BIO1211 (1 μM) 30 min, then compound 16 (100 μM))?
The value was “not able to modify the reduction in adhesion induced by BIO1211; also recorded: not able to modify the reduced cell adhesion induced by BIO1211”.

What about the “Effect on Jurkat cell adhesion to VCAM-1” value ([2]; compound 16 100 μM) of the same molecule?
Its value is “increasing the adhesion of Jurkat cells to VCAM-1”.

With `Cc1ccccc1NC(=O)Nc1ccc(CNC(=O)C2=CCN(C(=O)CC(=O)O)[C@H]2C(C)C)cc1` [Compound 11b] as the molecule, how does the “Inhibitory potency towards α4β1 integrin” value [3] read?
The value was “considerably less active”.

Which results are given for `Cc1ccccc1NC(=O)Nc1ccc(CC(=O)N2CC[C@H](C(=O)NCC(=O)O)C2)cc1` [DS-70]?
Outcome in guinea pig model of allergic conjunctivitis [4]: successfully tested; Binding affinity for human α4β1 integrin [5]: high binding affinity; Antagonist activity of α4–mediated cell adhesion [6]: potent antagonist activity

For `CCCC[C@@H](COC(=O)N(Cc1cccs1)Cc1cccs1)NC(=O)N[C@@H](CC(=O)OC)c1ccc2c(c1)OCO2` [THI0019], which “Effect on endothelial progenitor cells in vitro” value [7] is on record?
The value was “enhanced the rolling, spreading, adhesion, and migration”.

With `Cc1ccccc1NC(=O)Nc1ccc(CNC(=O)C2=CCN(C(=O)CC(=O)O)[C@@H]2C(C)C)cc1` [Compound 11a] as the molecule, how does the Enzymatic stability [8] read?
The Enzymatic stability was “superior enzymatic stability respect to cyclic peptides 8–10”.

And the “IC50, inhibition of α4β1/VCAM interaction” value [3]?
Its value is “in the nanomolar range”.

With `Cc1ccccc1NC(=O)Nc1ccc(CC(=O)N[C@@H](CC(C)C)C(=O)N[C@@H](CC(=O)O)C(=O)N[C@H](C(=O)N2CCC[C@H]2C(=O)O)C(C)C)cc1` [BIO1211, MPUPA-Leu-Asp-Val-Pro] ({NH(2-Me-phenyl)-CO}-[X1]LDVP-OH) as the molecule, how does the IC50 [9] read?
Its IC50 is 2000 nM.

And the IC50 [10]?
Its IC50 is 4 nM.

What about the Enzymatic stability [8] of the same molecule?
Its Enzymatic stability is “a certain enzymatic instability”.

What about the “Effect of BIO1211 on cell adhesion induced by coated compound 16” value ([1]; BIO1211 10 nM–100 mM, wells coated with compound 16 10 μg/mL) of the same molecule?
Its value is “not able to reduce the increment of cell adhesion induced by compound 16”.

What about the “Efficacy in sheep model of allergic bronchoconstriction” value [11] of the same molecule?
Its value is “prophylactic efficacy”.

For `Cc1ccccc1NC(=O)Nc1ccc(CC(=O)N[C@@H](CCCCNC(=O)/C=C/c2cccnc2)C(=O)N[C@@H](CCCC(=O)O)C(=O)NC2(C(N)=O)CCCCC2)cc1` [LLP2A], which IC50 [12] is on record?
The IC50 was 0.002 nM.

And the “Effect on cell proliferation and survival of α4β1–positive cells” value [13]?
The value was “without any effect”.
